Like-named read-outs stand apart in the source and are kept apart here. Square brackets hold non-standard residues; d marks the D form. Peptide text beside a SMILES is read from it. * marks the point of attachment. X2 = CCCCCCNC[C@H](Cc1ccccc1)N*; X3 = OCCCCCNC[C@H](Cc1ccccc1)N*; X1 = OCCNC[C@H](Cc1ccccc1)N*; Aib = CC(C)(N)C(=O)O
How the values were obtained:
Bacillus cereus = assay type: cell-based
Experimental: (§1) All these peptides were tested for their antibacterial activity using standard minimal inhibitory concentration (MIC) assays exactly as described in Mattheus et al. […] They are identical except for the glutamine residues, which are replaced with methyl protected glutamic acid residues in ABCD-Phaol. Although ABCD-Phaol should be a functionally reliable model of its natural counterpart, the difference in activity can only be explained by the different interaction with the membrane of the amino acid residue side chains. The amide interaction positively influences activity, so the conversion of Glu(OMe) to Gln improves the activity.

Bacillus subtilis = assay type: cell-based
Experimental: as §1

Enterococcus faecalis = assay type: cell-based
Experimental: as §1

Staphylococcus aureus [1] = assay type: cell-based
Experimental: as §1

[2] = test system: Bacillus cereus, Bacillus subtilis, Enterococcus faecalis, Staphylococcus aureus; assay: Antibacterial activity, MIC assays, overall statement on the bacteria tested; assay type: cell-based; settings: standard MIC assays; four bacteria tested
Experimental: as §1

Staphylococcus aureus [3] = settings: natural Septocylindrin B; ref [1]; cited from earlier work
Text: Table 1 Antibacterial activity (MIC, µM) of Septocylindrin B and selected analogues. ^a | column: Staphylococcus aureus

[4] = standard MIC assay as described in Mattheus et al. [13]
[5] = standard MIC assay as described in Mattheus et al. [13], cell holds only footnote mark d

Molecule	Antibacterial activity (MIC) Bacillus cereus (Bacillus cereus) [µM]	Antibacterial activity (MIC) Bacillus subtilis (Bacillus subtilis) [µM]	Antibacterial activity (MIC) Enterococcus faecalis (Enterococcus faecalis) [µM]	Antibacterial activity (MIC) Staphylococcus aureus (Staphylococcus aureus [1]) [µM]	Antibacterial activity (MIC) Bacillus cereus (Bacillus cereus; [4]) [µM]	Antibacterial activity (MIC) Bacillus subtilis (Bacillus subtilis; [4]) [µM]	Antibacterial activity (MIC) Enterococcus faecalis (Enterococcus faecalis; [4]) [µM]	Antibacterial activity (MIC) Staphylococcus aureus (Staphylococcus aureus [1]; [5])	Antibacterial activity, result in words [2]	Antibacterial activity (MIC) Staphylococcus aureus (Staphylococcus aureus [3]) [µM]
CCCCCCNC[C@H](Cc1ccccc1)NC(=O)[C@H](CCC(=O)OC)NC(=O)[C@H](CCC(=O)OC)NC(=O)C(C)(C)NC(=O)C(C)(C)NC(=O)[C@@H](NC(=O)[C@@H]1CCCN1C(=O)C(C)(C)NC(=O)[C@H](CC(C)C)NC(=O)CNC(=O)C(C)(C)NC(=O)[C@@H](NC(=O)C(C)(C)NC(=O)[C@H](CCC(=O)OC)NC(=O)[C@H](C)NC(=O)C(C)(C)NC(=O)[C@H](C)NC(=O)C(C)(C)NC(=O)[C@@H]1CCCN1C(=O)C(C)(C)NC(C)=O)C(C)C)C(C)C [ABCD-Phaol-N6, Ac-Aib1-Pro2-Aib3-Ala4-Aib5-Ala6-Glu(OMe)7-Aib8-Val9-Aib10-Gly11-Leu12-Aib13-Pro14-Val15-Aib16-Aib17-Glu(OMe)18-Glu(OMe)19-Phaol20-N6] (Ac-[Aib]P[Aib]A[Aib]AE(OMe)[Aib]V[Aib]GL[Aib]PV[Aib][Aib]E(OMe)E(OMe)-X2)	>100	>100	25	>100						
Ac-Aib1-Pro2-Aib3-Ala4-Aib5-Ala6-Glu(OMe)7-Aib8-Val9-Aib10-Gly11-Leu12-Aib13-Pro14-Val15-Aib16-Aib17-Glu(OMe)18-Glu(OMe)19- Phe20-ethanolamine [ABCD-Phe-ethanolamine]					100	>100	6	^d (A reduced growth is clearly visible, but no MIC end point ≤100 µM)		
COC(=O)CC[C@H](NC(=O)[C@H](C)NC(=O)C(C)(C)NC(=O)[C@H](C)NC(=O)C(C)(C)NC(=O)[C@@H]1CCCN1C(=O)C(C)(C)NC(C)=O)C(=O)NC(C)(C)C(=O)N[C@H](C(=O)NC(C)(C)C(=O)NCC(=O)N[C@@H](CC(C)C)C(=O)NC(C)(C)C(=O)N1CCC[C@H]1C(=O)N[C@H](C(=O)NC(C)(C)C(=O)NC(C)(C)C(=O)N[C@@H](CCC(=O)OC)C(=O)N[C@@H](CCC(=O)OC)C(=O)N[C@H](CNCCO)Cc1ccccc1)C(C)C)C(C)C [ABCD-Phaol] (Ac-[Aib]P[Aib]A[Aib]AE(OMe)[Aib]V[Aib]GL[Aib]PV[Aib][Aib]E(OMe)E(OMe)-X1)	>50	>50	6	>50						
CC(=O)NC(C)(C)C(=O)N1CCC[C@H]1C(=O)NC(C)(C)C(=O)N[C@@H](C)C(=O)NC(C)(C)C(=O)N[C@@H](C)C(=O)N[C@@H](CCC(N)=O)C(=O)NC(C)(C)C(=O)N[C@H](C(=O)NC(C)(C)C(=O)NCC(=O)N[C@@H](CC(C)C)C(=O)NC(C)(C)C(=O)N1CCC[C@H]1C(=O)N[C@H](C(=O)NC(C)(C)C(=O)NC(C)(C)C(=O)N[C@@H](CCC(N)=O)C(=O)N[C@@H](CCC(N)=O)C(=O)N[C@H](CNCCO)Cc1ccccc1)C(C)C)C(C)C [Septocylindrin B synthetic] (Ac-[Aib]P[Aib]A[Aib]AQ[Aib]V[Aib]GL[Aib]PV[Aib][Aib]QQ-X1)	6.25	12.5	6.25	12.5					activity against all four bacteria tested	8
COC(=O)CC[C@H](NC(=O)[C@H](C)NC(=O)C(C)(C)NC(=O)[C@H](C)NC(=O)C(C)(C)NC(=O)[C@@H]1CCCN1C(=O)C(C)(C)NC(C)=O)C(=O)NC(C)(C)C(=O)N[C@H](C(=O)NC(C)(C)C(=O)NCC(=O)N[C@@H](CC(C)C)C(=O)NC(C)(C)C(=O)N1CCC[C@H]1C(=O)N[C@H](C(=O)NC(C)(C)C(=O)NC(C)(C)C(=O)N[C@@H](CCC(=O)OC)C(=O)N[C@@H](CCC(=O)OC)C(=O)N[C@H](CNCCCCCO)Cc1ccccc1)C(C)C)C(C)C [ABCD-Phaol-N5O, Ac-Aib1-Pro2-Aib3-Ala4-Aib5-Ala6-Glu(OMe)7-Aib8-Val9-Aib10-Gly11-Leu12-Aib13-Pro14-Val15-Aib16-Aib17-Glu(OMe)18-Glu(OMe)19-Phaol20-N5O] (Ac-[Aib]P[Aib]A[Aib]AE(OMe)[Aib]V[Aib]GL[Aib]PV[Aib][Aib]E(OMe)E(OMe)-X3)	50	>100	1.5					^d (A reduced growth is clearly visible, but no MIC end point ≤100 µM)		
